Each block holds one compound with its values, some of them ahead of it.
How the values were obtained:
[1] = biological target: T1, Alpha-glucosidase (Saccharomyces cerevisiae S288c, UniProt P53341+P38158+P07265); assay: Inhibition of Saccharomyces cerevisiae alpha-glucosidase using nitrophenol-alpha-D-glucopyranoside (pNPG) as substrate incubated for 15 mins; type: protein assay
[2] = tested on: CYP3A4; assay: Inhibition of CYP3A4 in rat liver microsomes assessed as remaining activity at 100 uM measured after 30 mins by LC-MS/MS analysis; type: ADME, Microsome; settings: read-out: Activity
[3] = biological target: T2, Alpha-glucosidase (Saccharomyces cerevisiae S288c) (UniProt P53341+P38158+P07265); assay: Binding affinity to Saccharomyces cerevisiae alpha-glucosidase assessed as decrease in protein stability by measuring alpha-helix structure at 5 uM measured after 5 mins by CD spectrum assay (reference value: 84.50%); design: scale not given: the % may be the effect or the level left
[4] = biological target: CYP2E1 (Rattus norvegicus, UniProt P05182); assay: Inhibition of CYP2E1 in rat liver microsomes assessed as remaining activity at 100 uM measured after 30 mins by LC-MS/MS analysis; type: ADME, Microsome; settings: read-out: Activity
CYP2E1, sequence (P05182 whole entry): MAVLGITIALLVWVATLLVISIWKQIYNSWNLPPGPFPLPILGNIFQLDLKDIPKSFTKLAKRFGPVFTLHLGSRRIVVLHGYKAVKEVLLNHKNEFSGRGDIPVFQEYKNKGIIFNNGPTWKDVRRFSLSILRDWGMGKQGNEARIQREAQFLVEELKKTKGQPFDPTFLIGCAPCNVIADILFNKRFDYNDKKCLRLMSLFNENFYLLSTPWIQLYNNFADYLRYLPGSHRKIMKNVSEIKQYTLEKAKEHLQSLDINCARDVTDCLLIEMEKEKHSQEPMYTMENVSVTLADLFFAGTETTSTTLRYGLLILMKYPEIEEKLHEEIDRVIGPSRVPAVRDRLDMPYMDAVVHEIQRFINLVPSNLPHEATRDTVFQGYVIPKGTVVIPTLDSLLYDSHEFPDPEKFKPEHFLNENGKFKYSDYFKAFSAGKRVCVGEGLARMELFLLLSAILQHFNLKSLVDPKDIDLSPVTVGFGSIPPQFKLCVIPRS

[5] = biological target: T2, Alpha-glucosidase (Saccharomyces cerevisiae S288c); assay: Binding affinity to Saccharomyces cerevisiae alpha-glucosidase assessed as decrease in protein stability by measuring beta-sheet structure at 10 uM measured after 5 mins by CD spectrum assay (reference value: 4.30%); design: scale not given: the % may be the effect or the level left
[6] = Cytotoxicity against human HEK293 cells assessed as cell viability at 100 uM measured after 24 hrs by MTT assay relative to control; type: toxicity, cell-based; settings: read-out: Activity
[7] = Cytotoxicity against human HEK293 cells assessed as cell viability at 200 uM measured after 24 hrs by MTT assay relative to control; type: toxicity, cell-based; settings: read-out: Activity
[8] = tested on: CYP2C9; assay: Inhibition of CYP2C9 in rat liver microsomes assessed as remaining activity at 100 uM measured after 30 mins by LC-MS/MS analysis; type: ADME, Microsome; settings: read-out: Activity
[9] = biological target: T2, Alpha-glucosidase (Saccharomyces cerevisiae S288c); assay: Binding affinity to Saccharomyces cerevisiae alpha-glucosidase assessed as decrease in protein stability by measuring beta-sheet structure at 15 uM measured after 5 mins by CD spectrum assay (reference value: 4.30%); design: scale not given: the % may be the effect or the level left
[10] = biological target: T2, Alpha-glucosidase (Saccharomyces cerevisiae S288c); assay: Binding affinity to Saccharomyces cerevisiae alpha-glucosidase assessed as decrease in protein stability by measuring beta-sheet structure at 5 uM measured after 5 mins by CD spectrum assay (reference value: 4.30%); design: scale not given: the % may be the effect or the level left
[11] = biological target: T2, Alpha-glucosidase (Saccharomyces cerevisiae S288c); assay: Binding affinity to Saccharomyces cerevisiae alpha-glucosidase assessed as decrease in fluorescence intensity at 0 to 45 uM by fluorescence quenching study relative to control; type: protein assay; design: scale not given: the % may be the effect or the level left; settings: dose 0-45 µM
[12] = biological target: T2, Alpha-glucosidase (Saccharomyces cerevisiae S288c); assay: Binding affinity to Saccharomyces cerevisiae alpha-glucosidase assessed as decrease in protein stability by measuring random coil structure at 7.5 uM measured after 5 mins by CD spectrum assay (reference value: 6.20%); design: scale not given: the % may be the effect or the level left
[13] = biological target: T2, Alpha-glucosidase (Saccharomyces cerevisiae S288c); assay: Binding affinity to Saccharomyces cerevisiae alpha-glucosidase assessed as decrease in protein stability by measuring beta-sheet structure at 20 uM measured after 5 mins by CD spectrum assay (reference value: 4.30%); design: scale not given: the % may be the effect or the level left
[14] = biological target: T1, Alpha-glucosidase; assay: Competitive inhibition of Saccharomyces cerevisiae alpha-glucosidase using nitrophenol-alpha-D-glucopyranoside (pNPG) as substrate at 24 to 48 uM measured after 15 mins by Lineweaver-Burk plot analysis; type: protein assay
[15] = biological target: T2, Alpha-glucosidase (Saccharomyces cerevisiae S288c); assay: Binding affinity to Saccharomyces cerevisiae alpha-glucosidase assessed as quenching constant value (Kq) by fluorescence quenching study; type: protein assay
[16] = biological target: T2, Alpha-glucosidase (Saccharomyces cerevisiae S288c); assay: Binding affinity to Saccharomyces cerevisiae alpha-glucosidase assessed as decrease in protein stability by measuring beta-turn structure at 7.5 uM measured after 5 mins by CD spectrum assay (reference value: 6.80%); design: scale not given: the % may be the effect or the level left
[17] = biological target: T2, Alpha-glucosidase (Saccharomyces cerevisiae S288c); assay: Binding affinity to Saccharomyces cerevisiae alpha-glucosidase assessed as decrease in protein stability by measuring random coil structure at 5 uM measured after 5 mins by CD spectrum assay (reference value: 6.20%); design: scale not given: the % may be the effect or the level left
[18] = biological target: T2, Alpha-glucosidase (Saccharomyces cerevisiae S288c); assay: Binding affinity to Saccharomyces cerevisiae alpha-glucosidase assessed as decrease in fluorescence intensity peak 2 by 3D spectra assay; type: protein assay; design: scale not given: the % may be the effect or the level left
[19] = biological target: T2, Alpha-glucosidase (Saccharomyces cerevisiae S288c); assay: Binding affinity to Saccharomyces cerevisiae alpha-glucosidase assessed as decrease in protein stability by measuring alpha-helix structure at 7.5 uM measured after 5 mins by CD spectrum assay (reference value: 84.50%); design: scale not given: the % may be the effect or the level left
[20] = Cytotoxicity against human HEK293 cells assessed as cell viability at 150 uM measured after 24 hrs by MTT assay relative to control; type: toxicity, cell-based; settings: read-out: Activity
[21] = biological target: T3, CYP1A2 (Rattus norvegicus, UniProt P04799); assay: Inhibition of CYP1A2 in rat liver microsomes assessed as remaining activity at 100 uM measured after 30 mins by LC-MS/MS analysis; type: ADME, Microsome; settings: read-out: Activity
T3 sequence (P04799 whole entry): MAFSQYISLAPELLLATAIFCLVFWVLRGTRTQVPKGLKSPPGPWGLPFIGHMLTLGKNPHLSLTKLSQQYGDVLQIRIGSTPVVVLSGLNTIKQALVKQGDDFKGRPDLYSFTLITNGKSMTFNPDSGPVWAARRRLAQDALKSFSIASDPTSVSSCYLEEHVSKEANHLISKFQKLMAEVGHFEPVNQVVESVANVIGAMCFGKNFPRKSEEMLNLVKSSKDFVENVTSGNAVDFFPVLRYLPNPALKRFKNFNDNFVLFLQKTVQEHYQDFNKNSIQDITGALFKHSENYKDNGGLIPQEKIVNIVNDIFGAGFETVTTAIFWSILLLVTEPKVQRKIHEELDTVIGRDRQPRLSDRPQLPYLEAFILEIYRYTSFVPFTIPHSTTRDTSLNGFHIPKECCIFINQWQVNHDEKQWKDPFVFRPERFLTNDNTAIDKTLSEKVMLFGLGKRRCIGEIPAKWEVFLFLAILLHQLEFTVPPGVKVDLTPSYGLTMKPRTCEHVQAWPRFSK

[22] = tested on: Mus musculus; assay: Anti-diabetic activity against 16 hrs fasted male Kunming mouse assessed as decrease in postprandial blood glucose at 20 mg/kg, IG after 30 mins […] of sucrose administered and measured upto 2 hrs by sucrose tolerance test; type: functional; settings: po
[23] = biological target: T2, Alpha-glucosidase (Saccharomyces cerevisiae S288c); assay: Binding affinity to Saccharomyces cerevisiae alpha-glucosidase assessed as decrease in protein stability by measuring beta-sheet structure at 7.5 uM measured after 5 mins by CD spectrum assay (reference value: 4.30%); design: scale not given: the % may be the effect or the level left
[24] = tested on: CYP2C19; assay: Inhibition of CYP2C19 in rat liver microsomes assessed as remaining activity at 100 uM measured after 30 mins by LC-MS/MS analysis; type: ADME, Microsome; settings: read-out: Activity
[25] = biological target: T2, Alpha-glucosidase (Saccharomyces cerevisiae S288c); assay: Binding affinity to Saccharomyces cerevisiae alpha-glucosidase assessed as decrease in protein stability by measuring random coil structure at 20 uM measured after 5 mins by CD spectrum assay (reference value: 6.20%); design: scale not given: the % may be the effect or the level left
[26] = biological target: T2, Alpha-glucosidase (Saccharomyces cerevisiae S288c); assay: Binding affinity to Saccharomyces cerevisiae alpha-glucosidase assessed as decrease in protein stability by measuring beta-turn structure at 5 uM measured after 5 mins by CD spectrum assay (reference value: 6.80%); design: scale not given: the % may be the effect or the level left
[27] = Cytotoxicity against human HEK293 cells assessed as cell viability at 50 uM measured after 24 hrs by MTT assay relative to control; type: toxicity, cell-based; settings: read-out: Activity
[28] = biological target: T1, Alpha-glucosidase; assay: Non-competitive inhibition of Saccharomyces cerevisiae alpha-glucosidase using nitrophenol-alpha-D-glucopyranoside (pNPG) as substrate at 24 to 48 uM measured after 15 mins by Lineweaver-Burk plot analysis; type: protein assay
[29] = biological target: T2, Alpha-glucosidase (Saccharomyces cerevisiae S288c); assay: Binding affinity to Saccharomyces cerevisiae alpha-glucosidase assessed as decrease in protein stability by measuring beta-turn structure at 15 uM measured after 5 mins by CD spectrum assay (reference value: 6.80%); design: scale not given: the % may be the effect or the level left
[30] = biological target: T2, Alpha-glucosidase (Saccharomyces cerevisiae S288c); assay: Binding affinity to Saccharomyces cerevisiae alpha-glucosidase assessed as decrease in protein stability by measuring alpha-helix structure at 20 uM measured after 5 mins by CD spectrum assay (reference value: 84.50%); design: scale not given: the % may be the effect or the level left
[31] = tested on: Mus musculus; assay: Anti-diabetic activity against 16 hrs fasted male Kunming mouse assessed as AUC of postprandial blood glucose at 20 mg/kg, IG after 30 mins […] of sucrose administered and measured upto 2 hrs by sucrose tolerance test (reference value: 810.40 +/- 75.53 mM.min); type: functional, organism-based
[32] = biological target: T2, Alpha-glucosidase (Saccharomyces cerevisiae S288c); assay: Binding affinity to Saccharomyces cerevisiae alpha-glucosidase assessed as decrease in protein stability by measuring beta-turn structure at 20 uM measured after 5 mins by CD spectrum assay (reference value: 6.80%); design: scale not given: the % may be the effect or the level left
[33] = biological target: T2, Alpha-glucosidase (Saccharomyces cerevisiae S288c); assay: Binding affinity to Saccharomyces cerevisiae alpha-glucosidase assessed as decrease in protein stability by measuring alpha-helix structure at 10 uM measured after 5 mins by CD spectrum assay (reference value: 84.50%); design: scale not given: the % may be the effect or the level left
[34] = biological target: T2, Alpha-glucosidase (Saccharomyces cerevisiae S288c); assay: Binding affinity to Saccharomyces cerevisiae alpha-glucosidase assessed as quenching constant value (Ka) by fluorescence quenching study; type: protein assay
[35] = biological target: T2, Alpha-glucosidase (Saccharomyces cerevisiae S288c); assay: Binding affinity to Saccharomyces cerevisiae alpha-glucosidase assessed as decrease in protein stability by measuring beta-turn structure at 10 uM measured after 5 mins by CD spectrum assay (reference value: 6.80%); design: scale not given: the % may be the effect or the level left
[36] = biological target: T2, Alpha-glucosidase (Saccharomyces cerevisiae S288c); assay: Binding affinity to Saccharomyces cerevisiae alpha-glucosidase assessed as decrease in protein stability by measuring random coil structure at 10 uM measured after 5 mins by CD spectrum assay (reference value: 6.20%); design: scale not given: the % may be the effect or the level left
[37] = biological target: T2, Alpha-glucosidase (Saccharomyces cerevisiae S288c); assay: Binding affinity to Saccharomyces cerevisiae alpha-glucosidase assessed as decrease in fluorescence intensity peak 1 by 3D spectra assay; type: protein assay; design: scale not given: the % may be the effect or the level left
[38] = tested on: CYP2B6; assay: Inhibition of CYP2B6 in rat liver microsomes assessed as remaining activity at 100 uM measured after 30 mins by LC-MS/MS analysis; type: ADME, Microsome; settings: read-out: Activity
[39] = biological target: T2, Alpha-glucosidase (Saccharomyces cerevisiae S288c); assay: Binding affinity to Saccharomyces cerevisiae alpha-glucosidase assessed as decrease in protein stability by measuring random coil structure at 15 uM measured after 5 mins by CD spectrum assay (reference value: 6.20%); design: scale not given: the % may be the effect or the level left
[40] = biological target: T2, Alpha-glucosidase (Saccharomyces cerevisiae S288c); assay: Binding affinity to Saccharomyces cerevisiae alpha-glucosidase assessed as quenching constant value (Ksv) by fluorescence quenching study; type: protein assay
[41] = biological target: T2, Alpha-glucosidase (Saccharomyces cerevisiae S288c); assay: Binding affinity to Saccharomyces cerevisiae alpha-glucosidase assessed as decrease in protein stability by measuring alpha-helix structure at 15 uM measured after 5 mins by CD spectrum assay (reference value: 84.50%); design: scale not given: the % may be the effect or the level left
[42] = tested on: CYP2D6; assay: Inhibition of CYP2D6 in rat liver microsomes assessed as remaining activity at 100 uM measured after 30 mins by LC-MS/MS analysis; type: ADME, Microsome; settings: read-out: Activity

IC50 [1]: 114.9 µM
Structure (SMILES): COc1ccccc1/C=N/Nc1nnc2n1N=C(c1ccccc1)CS2

activity at 0.5 h, 100 µM [2]: 96.5%
Activity [3]: 66.5%
activity at 0.5 h, 100 µM [4]: 92.6%
IC50 [1]: 31.23 µM
Activity [5]: 6.3%
activity at 0.5 h, 100 µM [8]: 90.7%
Activity [9]: 6.6%
Activity [10]: 5.8%
Activity [11]: 87.7%
Activity [12]: 17.5%
Activity [13]: 7%
Ki [14]: 40.46 µM
Kq [15]: 1.57 10^13L/mol
Activity [16]: 10.6%
Activity [17]: 16%
Activity [18]: 37.4%
Activity [19]: 63.4%
activity at 0.5 h, 100 µM [21]: 77.7%
Activity [23]: 6.1%
activity at 0.5 h, 100 µM [24]: 75.4%
Activity [25]: 21.2%
Activity [26]: 10.1%
Ki [28]: 87.56 µM
Activity [29]: 11.2%
Activity [30]: 57.3%
Activity [32]: 11.6%
Activity [33]: 62.7%
Ka [34]: 3.16 10^4L/mol
Activity [35]: 10.8%
Activity [36]: 18.4%
Activity [37]: 31.9%
activity at 0.5 h, 100 µM [38]: 98.7%
Activity [39]: 19.7%
KSV [40]: 1.57 10^5L/mol
Activity [41]: 60.2%
activity at 0.5 h, 100 µM [42]: 92.3%
Structure (SMILES): COc1cc(/C=N/Nc2nnc3n2N=C(c2ccccc2)CS3)cc(OC)c1O
viability at 24 h, 100 µM [6]: 90.5%
viability at 24 h, 200 µM [7]: 71.6%
viability at 24 h, 150 µM [20]: 81.2%
inhibition in vivo at 20 mg/kg [22]: 24.4%
viability at 24 h, 50 µM [27]: 100%
AUC [31]: 723 mM·min
